Read-outs that look alike come from different tables or passages of the source.
System: Human keratinocytes
Assay: 3H-thymidine incorporation by cultured keratinocytes (keratinocyte proliferation)
Type: cell-based
Settings: for activity at 0.25 µM / activity at 0.1 µM / activity at 0.025 µM / activation at 0.25 µM / activation at 0.025 µM: Homo sapiens, Keratinocyte; for activity at 0.25 µM / activity at 0.1 µM / activity at 0.025 µM: read-out: mean Thymidine incorp/μg protein (% control); for effect on keratinocyte proliferation (summary): Examples 1-3
Procedure: Human keratinocytes, isolated from neonatal foreskin by trypsin treatment were grown in Dulbecco Modification Eagle (DME) Hams F12 (1:1) medium/10% fetal calf serum in the presence of irradiated 3T3 mouse fibroblasts for establishing dividing keratinocyte colonies. Cells were grown under the above condition until their second passage and kept frozen for future use. Frozen second passage keratinocytes were thawed and plated into the above medium and grown for five days before they were switched to a serum-free MCDB 153-based medium keratinocyte growth medium (KGM) from Clonetics Corporation, San Diego, Calif., containing 0.15 mM Ca, or keratinocyte serum-free media (KSFM) from GIBCO containing 0.09 mM Ca). On day 7, when the cells were 80-90% confluent, they were trypsinized and plated in the serum-free medium for the various experiments.
The incorporation of ^3 H-thymidine by cultured keratinocytes was used as an assay of keratinocyte proliferation. Thymidine is one of four deoxynucleosides which are the monomeric units of DNA, the universal library of genetic information in the animal kingdom. Prior to cell division of a somatic cell such as a keratinocyte, the complete genome of the cell undergoing cell division is replicated. This involves large scale DNA synthesis by the cell and enables both daughter cells to receive identical copies of the genetic material. When ^3 H-thymidine is included in the culture media of keratinocytes which are synthesizing DNA in preparation for cell division then the labelled nucleoside is incorporated into the newly synthesized DNA. The extent of incorporation of ^3 H-thymidine into a population of cells is proportional to the rate of DNA synthesis by this population of cells and therefore an indication of their cellular proliferation.
Keratinocytes (that were cultured as described above) were plated in 24 well plates at a density of 40,000 cells per well in 1 ml media. After incubation for four days or until the cells were 60-70% confluent, the media was changed. Test compounds were added (in triplicate) to the wells 24 hours after the media change, and four hours later 1 μCl ^3 H-Thymidine in 50 μl media was added per well. Cells were incubated for a further 24 hours. Media was removed from the cells, 10% ice cold trichloroacetic acid (TCA) added and plates were incubated on ice for 30 minutes. Cells were washed five times with 5% TCA and allowed to dissolve in 500 μl […] NaOH for at least one hour (usually overnight). The preparations were neutralized with 0.1M HCl; 50 μl of the cell preparation was used to determine total protein content. Disintegrations per minute (DPM) from ^3 H labelling of DNA was determined by liquid scintillation counting of […] of the cell preparation. Thymidine incorporation results were expressed as DPM/μg protein.
A. The effect on incorporation of ^3 H-thymidine μg soluble protein 24 hours after the addition of retinoic acid or retinol at various concentrations was examined.
The effect on incorporation of ^3 H-thymidine/μg soluble protein 24 hours after addition of the test compounds was examined and the combined results of three independent experiments were normalized to their respective ethanol controls.
The effect of melinamide and the retinyl ester (retinyl palmitate) on incorporation of ^3 H-thymidine was examined.

[1] = Example 2, 2.5 × 10^-8 M, n = 3, 24 hours, three experiments normalized to ethanol controls
[2] = read-out: increase in keratinocyte thymidine incorporation over the ethanol control

Question: CCCCCCCCCCCCCCCC(=O)OC/C=C(C)/C=C/C=C(C)/C=C/C1=C(C)CCCC1(C)C [Retinyl palmitate, retinyl palmitate] was tested. Which “mean Thymidine incorp/μg protein ± s.d” value (Example 3, 2.5 × 10^-7 M) did it give?
Answer: Its value is 5746 ± 113 DPM/μg protein.

Question: What about the activity at 0.25 µM (24 h, Example 3, 2.5 × 10^-7 M) of the same molecule?
Answer: Its activity at 0.25 µM is 104%.

Question: What does the source list for CCCCC/C=C\C/C=C\CCCCCCCC(=O)NC(C)c1ccccc1 (stereo not shown) [Melinamide, melinamide]?
Answer: effect on keratinocyte proliferation on its own (Example 2, 10^-7 M): no effect; mean Thymidine incorp/μg protein ± s.d (Example 2, 10^-7 M, n = 3, 24 hours, three experiments normalized to ethanol controls): 4695 ± 324 DPM/μg protein; effect on keratinocyte proliferation on its own (Example 3, 10^-7 M): no effect; mean Thymidine incorp/μg protein ± s.d (Example 3, 10^-7 M): 4635 ± 608 DPM/μg protein; effect on keratinocyte proliferation (summary): little or no benefit on its own; activity at 0.1 µM (24 h, Example 2, 10^-7 M, n = 3, 24 hours): 91%; activity at 0.1 µM (24 h, Example 3, 10^-7 M): 84%

Question: Which “mean Thymidine incorp/μg protein ± s.d” value [1] does the source give for CC1=C(/C=C/C(C)=C/C=C/C(C)=C/CO)C(C)(C)CCC1 [ROH, Retinol] here?
Answer: Its value is 3956 ± 1303 DPM/μg protein.

Question: What about the “effect on keratinocyte proliferation (summary)” value of the same molecule?
Answer: The value was “completely ineffective at increasing keratinocyte proliferation”.

Question: And the activity at 0.025 µM (24 h, Example 2, 2.5 × 10^-8 M, n = 3, 24 hours)?
Answer: The activity at 0.025 µM was 76%.

Question: How did the “keratinocyte proliferation over both the ethanol control and each of the retinol treatments” value (Example 1, 2.5×10^-7 M, 2.5×10^-8 and 2.5×10^-9 M) turn out when CC1=C(/C=C/C(C)=C/C=C/C(C)=C/C(=O)O)C(C)(C)CCC1 [RA, Retinoic acid] was run?
Answer: Its value is “significantly increased keratinocyte proliferation”.

Question: And the “mean Thymidine incorp/μg protein ± s.d” value [1]?
Answer: The value was 6711 ± 402 DPM/μg protein.

Question: What about the “mean Thymidine incorp/μg protein ± s.d” value (Example 3, 2.5 × 10^-7 M) of the same molecule?
Answer: The value was 7795 ± 370 DPM/μg protein.

Question: What about the “effect on keratinocyte proliferation (summary)” value of the same molecule?
Answer: The value was “increased keratinocyte proliferation”.

Question: And the activity at 0.25 µM (24 h, Example 3, 2.5 × 10^-7 M)?
Answer: The activity at 0.25 µM was 142%.

Question: What about the activation at 0.25 µM (read-out: increase in keratinocyte thymidine incorporation over the 2.5×10^-7 M retinyl palmitate treatment) of the same molecule?
Answer: The activation at 0.25 µM was 38%.

Question: What about the activation at 0.025 µM (read-out: increase in keratinocyte thymidine incorporation over the 2.5×10^-8 M retinol treatment) of the same molecule?
Answer: Its activation at 0.025 µM is 30%.

Question: What about the activation at 0.025 µM [2] of the same molecule?
Answer: Its activation at 0.025 µM is 30%.

Question: And the activation at 0.25 µM [2]?
Answer: The activation at 0.25 µM was 38%.

Question: And the activity at 0.025 µM (Example 2, 2.5 × 10^-8 M, n = 3, 24 hours)?
Answer: The activity at 0.025 µM was 130%.
